Measured values as given in ChEMBL document CHEMBL2057203, “Synthesis and evaluation of novel F-18 labeled 4-aminoquinazoline derivatives: potential PET imaging agents for tumor detection” (Bioorg Med Chem Lett, 2012).

Key:
[1] = tested on: Stomach; experiment: Biodistribution in S180 tumor-bearing mouse stomach at 8 to 10 uCi, iv after 60 mins by gamma counting; format: ADME, organism-based; settings: in vivo, 1 h
[2] = tested on: Muscle tissue; experiment: Biodistribution in S180 tumor-bearing mouse muscle at 8 to 10 uCi, iv after 60 mins by gamma counting; format: ADME, organism-based; settings: in vivo, 1 h
[3] = tested on: Heart; experiment: Biodistribution in S180 tumor-bearing mouse heart at 8 to 10 uCi, iv after 5 mins by gamma counting; format: ADME, organism-based; settings: in vivo
[4] = Chemical stability in PBS after 2 hrs by radio-HPLC analysis at 60 degC; format: physicochemical; settings: buffer
[5] = tested on: Spleen; experiment: Biodistribution in S180 tumor-bearing mouse spleen at 8 to 10 uCi, iv after 5 mins by gamma counting; format: ADME, organism-based; settings: in vivo
[6] = tested on: Spleen; experiment: Biodistribution in S180 tumor-bearing mouse spleen at 8 to 10 uCi, iv after 60 mins by gamma counting; format: ADME, organism-based; settings: in vivo, 1 h
[7] = tested on: Lung; experiment: Biodistribution in S180 tumor-bearing mouse lung at 8 to 10 uCi, iv after 120 mins by gamma counting; format: ADME, organism-based; settings: in vivo, 2 h
[8] = tested on: Brain; experiment: Biodistribution in S180 tumor-bearing mouse brain at 8 to 10 uCi, iv after 5 mins by gamma counting; format: ADME, organism-based; settings: in vivo
[9] = tested on: Heart; experiment: Biodistribution in S180 tumor-bearing mouse heart at 8 to 10 uCi, iv after 60 mins by gamma counting; format: ADME, organism-based; settings: in vivo, 1 h
[10] = tested on: Kidney; experiment: Biodistribution in S180 tumor-bearing mouse kidney at 8 to 10 uCi, iv after 30 mins by gamma counting; format: ADME, organism-based; settings: in vivo, 0.5 h
[11] = tested on: Mus musculus; experiment: Biodistribution in S180 cells xenografted in mouse tumor at 8 to 10 uCi, iv after 60 mins by gamma counting; format: ADME, organism-based, Neoplasm, CCRF S-180; settings: in vivo, 1 h
[12] = tested on: Liver; experiment: Biodistribution in S180 tumor-bearing mouse liver at 8 to 10 uCi, iv after 60 mins by gamma counting; format: ADME, organism-based; settings: in vivo, 1 h
[13] = tested on: Nucleic Acid; experiment: Ratio of drug level in tumor to brain in S180 tumor-bearing mouse at 8 to 10 uCi, iv at 5 mins by gamma counting; format: ADME, organism-based; settings: in vivo
[14] = tested on: Muscle tissue; experiment: Biodistribution in S180 tumor-bearing mouse muscle at 8 to 10 uCi, iv after 5 mins by gamma counting; format: ADME, organism-based; settings: in vivo
[15] = tested on: Mus musculus; experiment: Biodistribution in S180 cells xenografted in mouse tumor at 8 to 10 uCi, iv after 120 mins by gamma counting; format: ADME, organism-based, Neoplasm, CCRF S-180; settings: in vivo, 2 h
[16] = tested on: Muscle tissue; experiment: Biodistribution in S180 tumor-bearing mouse muscle at 8 to 10 uCi, iv after 30 mins by gamma counting; format: ADME, organism-based; settings: in vivo, 0.5 h
[17] = tested on: Nucleic Acid; experiment: Ratio of drug level in tumor to brain in S180 tumor-bearing mouse at 8 to 10 uCi, iv at 30 mins by gamma counting; format: ADME, organism-based; settings: in vivo, 0.5 h
[18] = tested on: Kidney; experiment: Biodistribution in S180 tumor-bearing mouse kidney at 8 to 10 uCi, iv after 120 mins by gamma counting; format: ADME, organism-based; settings: in vivo, 2 h
[19] = tested on: Nucleic Acid; experiment: Ratio of drug level in tumor to muscle in S180 tumor-bearing mouse at 8 to 10 uCi, iv at 30 mins by gamma counting; format: ADME, organism-based; settings: in vivo, 0.5 h
[20] = tested on: Heart; experiment: Biodistribution in S180 tumor-bearing mouse heart at 8 to 10 uCi, iv after 120 mins by gamma counting; format: ADME, organism-based; settings: in vivo, 2 h
[21] = tested on: Mus musculus; experiment: Biodistribution in S180 cells xenografted in mouse tumor at 8 to 10 uCi, iv after 30 mins by gamma counting; format: ADME, organism-based, Neoplasm, CCRF S-180; settings: in vivo, 0.5 h
[22] = tested on: Brain; experiment: Biodistribution in S180 tumor-bearing mouse brain at 8 to 10 uCi, iv after 30 mins by gamma counting; format: ADME, organism-based; settings: in vivo, 0.5 h
[23] = tested on: Heart; experiment: Biodistribution in S180 tumor-bearing mouse heart at 8 to 10 uCi, iv after 30 mins by gamma counting; format: ADME, organism-based; settings: in vivo, 0.5 h
[24] = tested on: Stomach; experiment: Biodistribution in S180 tumor-bearing mouse stomach at 8 to 10 uCi, iv after 120 mins by gamma counting; format: ADME, organism-based; settings: in vivo, 2 h
[25] = tested on: Liver; experiment: Biodistribution in S180 tumor-bearing mouse liver at 8 to 10 uCi, iv after 30 mins by gamma counting; format: ADME, organism-based; settings: in vivo, 0.5 h
[26] = tested on: Liver; experiment: Biodistribution in S180 tumor-bearing mouse liver at 8 to 10 uCi, iv after 5 mins by gamma counting; format: ADME, organism-based; settings: in vivo
[27] = tested on: Nucleic Acid; experiment: Ratio of drug level in tumor to muscle in S180 tumor-bearing mouse at 8 to 10 uCi, iv at 5 mins by gamma counting; format: ADME, organism-based; settings: in vivo
[28] = tested on: Blood; experiment: Biodistribution in S180 tumor-bearing mouse blood at 8 to 10 uCi, iv after 120 mins by gamma counting; format: ADME, organism-based; settings: in vivo, 2 h
[29] = tested on: Lung; experiment: Biodistribution in S180 tumor-bearing mouse lungs at 8 to 10 uCi, iv after 5 mins by gamma counting; format: ADME, organism-based; settings: in vivo
[30] = tested on: Brain; experiment: Biodistribution in S180 tumor-bearing mouse brain at 8 to 10 uCi, iv after 60 mins by gamma counting; format: ADME, organism-based; settings: in vivo, 1 h
[31] = tested on: Nucleic Acid; experiment: Ratio of drug level in tumor to blood in S180 tumor-bearing mouse at 8 to 10 uCi, iv at 30 mins by gamma counting; format: ADME, organism-based; settings: tumour, 0.5 h
[32] = tested on: Blood; experiment: Biodistribution in S180 tumor-bearing mouse blood at 8 to 10 uCi, iv after 5 mins by gamma counting; format: ADME, organism-based; settings: in vivo
[33] = tested on: Nucleic Acid; experiment: Ratio of drug level in tumor to muscle in S180 tumor-bearing mouse at 8 to 10 uCi, iv at 120 mins by gamma counting; format: ADME, organism-based; settings: in vivo, 2 h
[34] = tested on: Nucleic Acid; experiment: Ratio of drug level in tumor to blood in S180 tumor-bearing mouse at 8 to 10 uCi, iv at 120 mins by gamma counting; format: ADME, organism-based; settings: tumour, 2 h
[35] = tested on: Spleen; experiment: Biodistribution in S180 tumor-bearing mouse spleen at 8 to 10 uCi, iv after 120 mins by gamma counting; format: ADME, organism-based; settings: in vivo, 2 h
[36] = tested on: Stomach; experiment: Biodistribution in S180 tumor-bearing mouse stomach at 8 to 10 uCi, iv after 30 mins by gamma counting; format: ADME, organism-based; settings: in vivo, 0.5 h
[37] = tested on: Nucleic Acid; experiment: Ratio of drug level in tumor to brain in S180 tumor-bearing mouse at 8 to 10 uCi, iv at 60 mins by gamma counting; format: ADME, organism-based; settings: in vivo, 1 h
[38] = tested on: Lung; experiment: Biodistribution in S180 tumor-bearing mouse lung at 8 to 10 uCi, iv after 60 mins by gamma counting; format: ADME, organism-based; settings: in vivo, 1 h
[39] = tested on: Muscle tissue; experiment: Biodistribution in S180 tumor-bearing mouse muscle at 8 to 10 uCi, iv after 120 mins by gamma counting; format: ADME, organism-based; settings: in vivo, 2 h
[40] = tested on: Nucleic Acid; experiment: Ratio of drug level in tumor to muscle in S180 tumor-bearing mouse at 8 to 10 uCi, iv at 60 mins by gamma counting; format: ADME, organism-based; settings: in vivo, 1 h
[41] = tested on: Nucleic Acid; experiment: Ratio of drug level in tumor to blood in S180 tumor-bearing mouse at 8 to 10 uCi, iv at 60 mins by gamma counting; format: ADME, organism-based; settings: tumour, 1 h
[42] = tested on: Stomach; experiment: Biodistribution in S180 tumor-bearing mouse stomach at 8 to 10 uCi, iv after 5 mins by gamma counting; format: ADME, organism-based; settings: in vivo
[43] = tested on: Blood; experiment: Biodistribution in S180 tumor-bearing mouse blood at 8 to 10 uCi, iv after 60 mins by gamma counting; format: ADME, organism-based; settings: in vivo, 1 h
[44] = tested on: Blood; experiment: Biodistribution in S180 tumor-bearing mouse blood at 8 to 10 uCi, iv after 30 mins by gamma counting; format: ADME, organism-based; settings: in vivo, 0.5 h
[45] = tested on: Mus musculus; experiment: Biodistribution in S180 cells xenografted in mouse tumor at 8 to 10 uCi, iv after 5 mins by gamma counting; format: ADME, organism-based, Neoplasm, CCRF S-180; settings: in vivo
[46] = tested on: Kidney; experiment: Biodistribution in S180 tumor-bearing mouse kidney at 8 to 10 uCi, iv after 60 mins by gamma counting; format: ADME, organism-based; settings: in vivo, 1 h
[47] = tested on: Kidney; experiment: Biodistribution in S180 tumor-bearing mouse kidneys at 8 to 10 uCi, iv after 5 mins by gamma counting; format: ADME, organism-based; settings: in vivo
[48] = tested on: Lung; experiment: Biodistribution in S180 tumor-bearing mouse lung at 8 to 10 uCi, iv after 30 mins by gamma counting; format: ADME, organism-based; settings: in vivo, 0.5 h
[49] = tested on: Spleen; experiment: Biodistribution in S180 tumor-bearing mouse spleen at 8 to 10 uCi, iv after 30 mins by gamma counting; format: ADME, organism-based; settings: in vivo, 0.5 h
[50] = tested on: Nucleic Acid; experiment: Ratio of drug level in tumor to blood in S180 tumor-bearing mouse at 8 to 10 uCi, iv at 5 mins by gamma counting; format: ADME, organism-based; settings: tumour
[51] = n-octanol-PBS partition coefficient, logP of the compound; format: physicochemical
[52] = tested on: Brain; experiment: Biodistribution in S180 tumor-bearing mouse brain at 8 to 10 uCi, iv after 120 mins by gamma counting; format: ADME, organism-based; settings: in vivo, 2 h
[53] = tested on: Plasma; experiment: Metabolic stability in mouse plasma after 2 hrs by radio-HPLC analysis; format: ADME, cell-free
[54] = Chemical stability in PBS after 2 hrs by radio-HPLC analysis at room temperature; format: physicochemical; settings: buffer
[55] = tested on: Nucleic Acid; experiment: Ratio of drug level in tumor to brain in S180 tumor-bearing mouse at 8 to 10 uCi, iv at 120 mins by gamma counting; format: ADME, organism-based; settings: in vivo, 2 h
[56] = tested on: Liver; experiment: Biodistribution in S180 tumor-bearing mouse liver at 8 to 10 uCi, iv after 120 mins by gamma counting; format: ADME, organism-based; settings: in vivo, 2 h

Structure (SMILES): COc1cc2ncnc(Nc3ccc(F)c(Cl)c3)c2cc1OCC[18F]
- Drug uptake [1]: 4.44 % ID/g
- Drug uptake [2]: 3.35 % ID/g
- Drug uptake [3]: 4.4 % ID/g
- Stability [4]: Stable
- Drug uptake [5]: 4.5 % ID/g
- Drug uptake [6]: 3.23 % ID/g
- Drug uptake [7]: 2.57 % ID/g
- Drug uptake [8]: 1.97 % ID/g
- Drug uptake [9]: 4.26 % ID/g
- Drug uptake [10]: 5.2 % ID/g
- Drug uptake [11]: 5.51 % ID/g
- Drug uptake [12]: 4.22 % ID/g
- Ratio [13]: 0.95
- Drug uptake [14]: 5.12 % ID/g
- Drug uptake [15]: 4.71 % ID/g
- Drug uptake [16]: 4.18 % ID/g
- Ratio [17]: 1.84
- Drug uptake [18]: 2.23 % ID/g
- Ratio [19]: 1.39
- Drug uptake [20]: 2.52 % ID/g
- Drug uptake [21]: 5.8 % ID/g
- Drug uptake [22]: 3.15 % ID/g
- Drug uptake [23]: 5.02 % ID/g
- Drug uptake [24]: 3.64 % ID/g
- Drug uptake [25]: 5.38 % ID/g
- Drug uptake [26]: 11.34 % ID/g
- Ratio [27]: 0.37
- Drug uptake [28]: 3.61 % ID/g
- Drug uptake [29]: 4.6 % ID/g
- Drug uptake [30]: 2.94 % ID/g
- Ratio [31]: 0.99
- Drug uptake [32]: 7 % ID/g
- Ratio [33]: 2.71
- Ratio [34]: 1.3
- Drug uptake [35]: 2.39 % ID/g
- Drug uptake [36]: 11.87 % ID/g
- Ratio [37]: 1.87
- Drug uptake [38]: 3.75 % ID/g
- Drug uptake [39]: 1.74 % ID/g
- Ratio [40]: 1.64
- Ratio [41]: 1.09
- Drug uptake [42]: 5.35 % ID/g
- Drug uptake [43]: 5.07 % ID/g
- Drug uptake [44]: 5.85 % ID/g
- Drug uptake [45]: 1.87 % ID/g
- Drug uptake [46]: 3.99 % ID/g
- Drug uptake [47]: 14.25 % ID/g
- Drug uptake [48]: 4.57 % ID/g
- Drug uptake [49]: 3.67 % ID/g
- Ratio [50]: 0.27
- logP [51]: 0.39
- Drug uptake [52]: 1.98 % ID/g
- Stability [53]: Stable
- Stability [54]: Stable
- Ratio [55]: 2.38
- Drug uptake [56]: 2.58 % ID/g
